Reference: US6517836B1, “Nitrophenylaziridine compounds and their use as prodrugs” (Auckland Uniservices Limited, priority 1998, dated 2003)
Like-named read-outs stand apart in the source and are kept apart here.

How the values were obtained:
[1] = tested on: Chinese hamster fibroblast NR− line (T78-1), V79/4 transfected with an empty shuttle vector; assay: Cytotoxicity, 18 h drug exposure, V79 NR− line (T78-1); assay type: cell-based; conditions: read-out: V-79 NR− IC50
Excerpt: (§1) The Chinese hamster fibroblast NR− line (T78-1) is a V79/4 Chinese hamster fibroblast transfected with an empty shuttle vector, while the NR+ line (T79-A3) is the corresponding NR transfectant. The human colon carcinoma NR− line (WIDR) is wild-type, while the NR+ line (WC14 10) is the corresponding NR transfectant. The human ovarian carcinoma NR− line (SKOV3) is wild-type, while the NR+ line (SC3.2) is the corresponding NR transfectant. EMT6 is a mouse mammary carcinoma line, and EN2A is the NR-transformed counterpart.

[2] = tested on: Chinese hamster fibroblast NR+ line (T79-A3), NR transfectant; assay: Cytotoxicity, 18 h drug exposure, V79 NR+ line (T79-A3); assay type: cell-based; conditions: for IC50: read-out: V-79 NR+ IC50; for V-79 ratio of IC50s: T78-1 vs T79-A3, inter-experiment average
Excerpt: as §1

[3] = tested on: human ovarian carcinoma NR− line (SKOV3), wild-type; assay: Cytotoxicity, 18 h drug exposure, SKOV3 NR− line; assay type: cell-based; conditions: read-out: SKOV NR− IC50
Excerpt: as §1

[4] = tested on: human colon carcinoma NR− line (WIDR), wild-type; assay: Cytotoxicity, 18 h drug exposure, WiDr NR− line; assay type: cell-based; conditions: read-out: WiDr NR− IC50
Excerpt: as §1

[5] = tested on: human ovarian carcinoma NR+ line (SC3.2), NR transfectant; assay: Cytotoxicity, 18 h drug exposure, SKOV NR+ line (SC3.2); assay type: cell-based; conditions: for IC50: read-out: SKOV NR+ IC50; for SKOV ratio of IC50s: SKOV3 vs SC3.2, inter-experiment average
Excerpt: as §1

[6] = tested on: human colon carcinoma NR+ line (WC14 10), NR transfectant; assay: Cytotoxicity, 18 h drug exposure, WiDr NR+ line (WC14 10); assay type: cell-based; conditions: for IC50: read-out: WiDr NR+ IC50; for WiDr ratio of IC50s: WIDR vs WC14 10, inter-experiment average
Excerpt: as §1

[7] = tested on: EN2A, NR-transformed counterpart of EMT6; assay: Cytotoxicity, 18 h drug exposure, EMT6 NR+ line (EN2A); assay type: cell-based, mouse; conditions: for EMT6 ratio of IC50s: EMT6 vs EN2A, inter-experiment average; for IC50: Mus musculus, read-out: EMT6 NR+ IC50
Excerpt: as §1

[8] = tested on: EMT6 mouse mammary carcinoma line; assay: Cytotoxicity, 18 h drug exposure, EMT6 NR− line; assay type: cell-based; conditions: Mus musculus, read-out: EMT6 NR− IC50
Excerpt: as §1

[9] = Cricetulus griseus, T78-1 cells, 18 h drug exposure
[10] = Cricetulus griseus, Fibroblast, T79-A3 cells, 18 h drug exposure
[11] = Homo sapiens, SK-OV-3, SKOV3 cells, 18 h drug exposure
[12] = Homo sapiens, WIDR cells, 18 h drug exposure
[13] = Homo sapiens, SC3.2 cells, 18 h drug exposure
[14] = Homo sapiens, WiDr, WC14 10 cells, 18 h drug exposure
[15] = EMT6, EN2A cells, 18 h drug exposure
[16] = Cricetulus griseus, T78-1, 18 h
[17] = Cricetulus griseus, Fibroblast, 18 h
[18] = T78-1 cells, 18 h drug exposure
[19] = T79-A3 cells, 18 h drug exposure
[20] = SKOV3 cells, 18 h drug exposure
[21] = SC3.2 cells, 18 h drug exposure
[22] = WC14 10 cells, 18 h drug exposure

Row | SMILES | IC50 [1, 9] [µM] | IC50 [2, 10] [µM] | V-79 ratio of IC50s [2] | IC50 [3, 11] [µM] | IC50 [4, 12] [µM] | IC50 [5, 13] [µM] | SKOV ratio of IC50s [5] | IC50 [6, 14] [µM] | WiDr ratio of IC50s [6] | IC50 [1, 18] [µM] | IC50 [2, 19] [µM] | IC50 [3, 20] [µM] | IC50 ([4]; WIDR cells, 18 h drug exposure) [µM] | IC50 [5, 21] [µM] | IC50 [6, 22] [µM] | also measured
1 | CS(=O)(=O)c1cc([N+](=O)[O-])c(C(N)=O)cc1N1CC1 [Compound 12, 5-(aziridin-1-yl)-4-(methylsulfonyl)-2-nitrobenzamide] | 419 | 40 | 12 | 393 | 224 | 22 | 19 | 22 | 10 | – | – | – | – | – | – | –
2 | NC(=O)c1c([N+](=O)[O-])ccc(N2CC2)c1[N+](=O)[O-] [Compound 13, 3-(aziridin-1-yl)-2,6-dinitrobenzamide] | 437 | 135 | 3.8 | 584 | 312 | 66 | 9.5 | 58 | 5.9 | – | – | – | – | – | – | EMT6 ratio of IC50s [7]: 10; IC50 [7, 15]: 27 µM; IC50 ([8]; EMT6 cells, 18 h drug exposure): 287 µM
3 | NC(=O)c1ccc([N+](=O)[O-])c(N2CC2)c1 [Compound 9, 3-(aziridin-1-yl)-4-nitrobenzamide] | 108 | 62 | 1.4 | 93 | 102 | 61 | 1.6 | 62 | 1.6 | – | – | – | – | – | – | –
4 | NC(=O)c1cc(N2CC2)ccc1[N+](=O)[O-] [Compound 11, 5-(aziridin-1-yl)-2-nitrobenzamide] | 121 | 81 | 1.5 | 129 | 126 | 102 | 1.4 | 89 | 1.4 | – | – | – | – | – | – | –
5 | O=C(NCCn1ccnc1)c1cc(N2CC2)c([N+](=O)[O-])cc1[N+](=O)[O-] [Compound 7, 5-(aziridin-1-yl)-N-[2-(imidazol-1-yl)ethyl]-2,4-dinitrobenzamide] | 420 | 0.39 | 1170 | 61 | 47 | 0.58 | 104 | 1 | 48 | – | – | – | – | – | – | –
6 | O=C(NCC(O)CO)c1cc(N2CC2)c([N+](=O)[O-])cc1[N+](=O)[O-] (stereo not drawn) [Compound 2, N-(2,3-dihydroxypropyl)-5-(aziridin-1-yl)-2,4-dinitrobenzamide] | 210 | 0.71 | 381 | 170 | 147 | 2.3 | 84 | 3.7 | 49 | – | – | – | – | – | – | EMT6 ratio of IC50s [7]: 86; IC50 [7, 15]: 1.1 µM; IC50 ([8]; EMT6 cells, 18 h drug exposure): 90 µM
7 | NC(=O)c1cc(N2CC2)c([N+](=O)[O-])cc1[N+](=O)[O-] [CB1954, 5-(aziridin-1-yl)-2,4-dinitrobenzamide, reference compound] | – | – | 1200 | – | – | – | 357 | – | 51 | – | – | – | – | – | – | EMT6 ratio of IC50s [7]: 1100; IC50 ([7]; EMT6, 18 h): 0.08 µM; IC50 [1, 16]: 395 µM; IC50 [2, 17]: 0.3 µM; IC50 ([3]; Homo sapiens, SK-OV-3, 18 h): 182 µM; IC50 ([4]; Homo sapiens, WiDr, 18 h): 56 µM; IC50 ([5]; Homo sapiens, 18 h): 0.58 µM; IC50 ([6]; Homo sapiens, WiDr, 18 h): 1.2 µM; IC50 ([8]; EMT6, 18 h): 90 µM
8 | O=C(NCCCCN1CCOCC1)c1cc(N2CC2)c([N+](=O)[O-])cc1[N+](=O)[O-] [Compound 6, N-[4-(4-morpholino)butyl]-5-(aziridin-1-yl)-2,4-dinitrobenzamide] | – | – | 1210 | – | – | – | 510 | – | 93 | 237 | 0.25 | 151 | 28 | 0.3 | 0.31 | –
9 | COC(=O)CCNC(=O)c1cc(N2CC2)c([N+](=O)[O-])cc1[N+](=O)[O-] [Compound 8, 5-(aziridin-1-yl)-N-[2-(methoxycarbonyl)ethyl]-2,4-dinitrobenzamide] | – | – | 1580 | – | – | – | 270 | – | 51 | – | – | – | – | – | – | IC50 [1, 16]: 581 µM; IC50 [2, 17]: 0.4 µM; IC50 ([3]; Homo sapiens, SK-OV-3, 18 h): 677 µM; IC50 ([4]; Homo sapiens, WiDr, 18 h): 124 µM; IC50 ([5]; Homo sapiens, 18 h): 2.5 µM; IC50 ([6]; Homo sapiens, WiDr, 18 h): 2.3 µM
10 | O=C(NCC(O)CO)c1cc([N+](=O)[O-])cc([N+](=O)[O-])c1N1CC1 (stereo not drawn) [Compound 17, 2-(aziridin-1-yl)-N-(2,3-dihydroxypropyl)-3,5-dinitrobenzamide] | 1440 | 6 | 208 | 1300 | 878 | 7.3 | 184 | 12 | 71 | – | – | – | – | – | – | –
11 | CN(CCN1CCOCC1)C(=O)c1cc(N2CC2)c([N+](=O)[O-])cc1[N+](=O)[O-] [Compound 4, 5-(aziridin-1-yl)-N-methyl-N-[2-(4-morpholino)ethyl]-2,4-dinitrobenzamide] | – | – | 235 | – | – | – | 46 | – | 21 | 364 | 1.8 | 533 | 170 | 13 | 8.1 | –
12 | O=C(NCCN1CCOCC1)c1cc([N+](=O)[O-])cc([N+](=O)[O-])c1N1CC1 [Compound 18, 2-(aziridin-1-yl)-N-[2-(4-morpholino)ethyl]-3,5-dinitrobenzamide] | – | – | >68 | – | – | – | >72 | – | 32 | > 500 | 7.3 | > 500 | 521 | 11 | 18 | –
13 | O=C(NCCCN1CCOCC1)c1cc(N2CC2)c([N+](=O)[O-])cc1[N+](=O)[O-] [Compound 5, 5-(aziridin-1-yl)-N-[3-(4-morpholino)propyl]-2,4-dinitrobenzamide] | – | – | 6210 | – | – | – | 730 | – | 120 | 255 | 0.048 | 122 | 30 | 0.15 | 0.23 | –
